# Read-outs that look alike come from different tables or passages of the source.
# Legend:
# MM.1R = experiment: MTT cell proliferation assay; format: cell-based; settings: Homo sapiens, 48 h
# Experimental: (§1) U266, RPMI 8226 cells (1×10^4), primary CD138+ cells, PBMCs (5×10^4), and BMSCs (1×10^4) were cultured in 96-well dishes and incubated without or with 6-OAP at indicated concentration for 48 h. MM.1S and MM.1R cells (2×10^4) were seeded into 96-well dishes and pre-cultured for 24 h, then treated with 6-OAP for 48 h. Cell proliferation was determined by MTT assay. Cell viability was estimated by trypan blue dye exclusion.
# MM.1S = experiment: MTT cell proliferation assay; format: cell-based; settings: Homo sapiens, MM1.S, 48 h
# Experimental: as §1
# RPMI 8226 = experiment: MTT cell proliferation assay; format: cell-based; settings: Homo sapiens, 48 h
# Experimental: as §1
# U266 = experiment: MTT cell proliferation assay; format: cell-based; settings: Homo sapiens, U-266, 48 h
# Experimental: as §1
# MM.1R cells = experiment: MTT assay, Dex with or without 6-OAP; format: cell-based, human; settings: 48 h, 6-OAP 7.5 µM
# Experimental: as §1
# Figure 4 6-OAP enhances cytotoxicity of Dox, Dex and BOR to MM cells. (A through C) MM.1S cells were treated for 48 h with Dox (A), Dex (B) or BOR (C) in the presence or absence of 6-OAP at 5 µM. MTT assay was used to test the proliferation of MM.1S cells. (D) MM.1R cells were treated for 48 h with Dex in the presence or absence of 6-OAP at 7.5 µM. MTT assay was used to test the proliferation of MM.1R cells. *p<.001,** p<.05. (E) MM.1S cells were cultured with control media (con), 6-OAP (O, 5 µM), BOR (B, 3 nM), or 6-OAP (5 µM) plus BOR (3 nM) (OB) for indicated time points. Cells were then lysed and subjected to Western blotting using indicated antibodies. CF, cleavage fragment.
# MM.1S cells = experiment: MTT assay with IL-6, IGF-I or BMSCs; format: cell-based, human; settings: 48 h
# Experimental: as §1
# Figure 5 6-OAP overcomes the protective effects of IL-6, IGF-I and BMSCs on MM cells. (A and B) MM.1S cells were cultured for 48 h with indicated concentrations of 6-OAP at the presence or absence of IL-6 (A) or IGF-I (B). Cell proliferation was assessed by MTT assay. (C) MM.1S and/or BMSCs cells were cultured for 48 h with indicated concentrations of 6-OAP. Cell proliferation was assessed by MTT assay. *p<.01,** p<.05. (D) MM.1S cells were serum starved for 2 h, then co-cultured without or with 6-OAP at 5 µM for 12 h, followed by stimulation with IL-6 at 10 ng/ml for indicated time points (upper panel), or IL-6 at 10 ng/ml for 1 h, followed by treatment with 6-OAP at indicated concentration for 12 h (lower panel). Whole-cell extracts were prepared and examined by Western blotting using antibodies against pJak2, pStat3, Stat3 or β-actin. (E) MM.1S cells were serum starved for 2 h, then co-cultured without or with 6-OAP (5 µM) for 12 h, followed by stimulation with IGF-I at 50 ng/ml for indicated time points (upper panel), or stimulated with IGF-I at 50 ng/ml for 1 h, followed by treatment with 6-OAP at indicated concentration for 12 h (lower panel). Whole-cell extracts were prepared and examined by western blotting using antibodies against pPDK1, pAkt, Akt or β-actin. (F) MM.1S cells were serum starved for 2 h, then co-cultured without or with 6-OAP (5 µM) for 12 h, followed by stimulation with TNF-α at 5 ng/ml for indicated time points. Whole-cell extracts were prepared and examined by Western blotting using indicated antibodies.
# [1] = Pharmacokinetic study (LC-MS/MS plasma concentration); format: in vivo, Sprague-Dawley rats; settings: rat; for MRT last: read-out: MRT0-t
# Experimental: Eight Sprague–Dawley rats (220–250 g, female) were bought from the Laboratory Animal Center of Nanfang Medical University (Guangzhou, China), and maintained and monitored in a specific pathogen-free environment. They were fasted overnight before the experiments. All rat studies were conducted according to protocols approved by the Animal Ethics Committee of our institute. Four rats were administered with 6-OAP (30 mg/kg) by intravenous injection, and the other four rats were inoculated with 6-OAP (40 mg/kg) by intraperitoneal injection. Blood samples of 100–200 µL were collected from the orbit at the time points indicated. The plasma concentrations of 6-OAP were determined by LC-MS/MS. The pharmacokinetic parameters were obtained from the pharmacokinetic software DAS 2.0 (Drug and Statistics Version 2.0).
# Bacillus subtilis = tested on: Bacillus subtilis; parameters: method as in PMID 9461679, PMID 8657743, PMID 12521264; settings: cited from earlier work
# [2] = female, Sprague-Dawley, in vivo, ip (40 mg/kg)
# [3] = female, Sprague-Dawley, in vivo, iv (30 mg/kg)
compound,measurement,setting,value
"CC=C(C)C(=O)OC1C2C(CC(C)C3C=CC(=O)C31C)OC(=O)C2C (centres unmarked) [6-OAP, 6-O-angeloylplenolin]",IC50,MM.1R,9.2 ± 2.1 µM
same,IC50,MM.1S,6.1 ± 0.4 µM
same,IC50,RPMI 8226,3.5 ± 0.3 µM
same,IC50,U266,8.6 ± 0.5 µM
same,effect on inhibitory effect of Dex,MM.1R cells,drastically potentiated inhibitory effect
same,IGF-I-caused cell proliferation,"MM.1S cells; IGF-I 10 to 50 ng/ml, 6-OAP 5 to 7.5 µM",abolished IGF-I-caused cell proliferation
same,IL-6-promoted proliferation,"MM.1S cells; IL-6 2 to 10 ng/ml, 6-OAP 5 to 7.5 µM",drastically reversed this effect
same,BMSCs-facilitated MM.1S cell expansion,"MM.1S cells; co-incubation with BMSCs, 6-OAP 5 or 7.5 µM",significantly inhibited this effect
same,AUC(0-t),[1]; [2],18000 ± 2700 ng·h/mL
same,Cmax,[1]; [2],3870 ± 1120 ng/mL
same,half-life,[1]; [2],4.68 ± 0.463 h
same,bioavailability,"[1]; female, Sprague-Dawley, in vivo, ip (40 mg/kg), read-out: BA (bioavailability)",92.5%
same,MRT last,[1]; [2],5.75 ± 1.03 h
same,AUC(0-t),[1]; [3],14700 ± 1020 ng·h/mL
same,Cmax,[1]; [3],16400 ± 1940 ng/mL
same,half-life,[1]; [3],1.76 ± 0.453 h
same,clearance,"[1]; female, Sprague-Dawley, in vivo, iv (30 mg/kg), read-out: CLz (converted)",34.1 mL/min/kg
same,MRT last,[1]; [3],1.44 ± 0.448 h
same,Tmax,"[1]; female, Sprague-Dawley, in vivo, ip, 40 mg/kg, ip 40 mg/kg, read-out: time of peak concentration (converted)",0.813 h
same,Tmax,"[1]; female, Sprague-Dawley, in vivo, ip, 40 mg/kg, ip (40 mg/kg), read-out: Tmax",0.813 ± 0.08 h
same,Tmax,"[1]; female, Sprague-Dawley, in vivo, iv, 30 mg/kg, iv 30 mg/kg, read-out: time of peak concentration (converted)",0.033 h
same,Tmax,"[1]; female, Sprague-Dawley, in vivo, iv, 30 mg/kg, iv (30 mg/kg), read-out: Tmax",0.033 h
same,CLz,[1]; ip 40 mg/kg,37.33 ± 5.58 mL/min/kg
same,peak plasma concentration,[1]; ip 40 mg/kg,11.191 ± 3.225 µM
same,peak plasma concentration,[1]; iv 30 mg/kg,47.506 ± 5.595 µM
same,antibacterial activity,Bacillus subtilis,exhibit antibacterial activity
